The record followed here is US7507281B2, “Antimicrobial cementitious composition, method and article” (Microban Products Company, priority 2005, dated 2009).

Series [1] concerns K. pneumoniae. The series can be described thus: Zone of inhibition of fresh cured BAL grout discs, K. pneumoniae (Example 1). Format: cell-based. Particulars: Klebsiella pneumoniae.
Series [2] deals with S. aureus. In words: Zone of inhibition of fresh cured BAL grout discs, S. aureus (Example 1). Format: cell-based. The settings on record: Staphylococcus aureus.
Series [3] has as its system Aspergillus niger. The series can be described thus: AATCC 30 Part III antifungal test of grout discs after QUV/Xenon exposure and water-spray neutralization (Example 2). The format is cell-based. The settings on record: for Growth A. niger: weathered and pH-neutralized, 168-hour incubation, sulfate. As for the experimental part:
Grout samples were prepared and cured as in Example 1, with antimicrobial agent admixed into the dry compound at levels of 0 ppm, 1000 ppm, and 2000 ppm based upon the total weight of the dry mix and antimicrobial agent (excluding water). Water was added, the slurry mixed, and 1.5-inch diameter pucks cast.
After air-curing, the samples were exposed for eight hours in either of QUV/Spray Accelerated Weathering Controller or Xenon Testing Chamber Xe-3HS (both by Q-Panel Lab Products, Cleveland, Ohio). The QUV exposure is an assay well known in the art for simulating aging, discoloration and/or degradation caused by conditions of ultraviolet radiation exposure, such as would be encountered in an outdoor application.
Thereafter, the sample discs were subjected to one hour of water spray, followed by one hour of condensation, alternatingly repeated for a total of eight hours. This treatment neutralizes the pH of the grout samples, simulating brief real-world exposure of the grout articles to, e.g., a shower stall application.
Samples then were plated against Aspergillus niger using the 30 Part III test. At the end of the 168-hour incubation period, the test plates were removed from the test chamber and the samples were evaluated for fungal attack and encroachment. The antimicrobial agent tested and the results of the evaluation are shown in Table 2; control and experimental plates are shown in FIGS. 1-3.

The nature of series [4]: Thermal stability. Format: physicochemical. The protocol: This species also appears to be thermally stable up to 160° C. and above. Thermal stability makes imazalil agent especially well-suited for inclusion in the production of cementitious powder by various manufacturers, as these powders are typically dried and packed at elevated temperatures. Many other antimicrobial/antifungal agents tend to discolor and clump when so thermally exposed.

The nature of series [5]: UV stability / discoloration under ultraviolet irradiation. Format: physicochemical. The settings on record: UVA 340 lamps, 168 hrs. The source says: Resistance to ultraviolet radiation and discoloring is advantageous given the typical outdoor environment of cured cementitious articles.
Setting [6] is: 1000 ppm imazalil sulfate in BAL grout disc, fresh cured.
Setting [7] is: 2000 ppm imazalil sulfate in BAL grout disc, fresh cured.

In general, zone of inhibition refers to the size of the clear area around the sample on an inoculated plate.

With `C=CCOC(Cn1ccnc1)c1ccc(Cl)cc1Cl.O=S(=O)(O)O` (racemic) [Imazalil Sulfate, (±)-1-[2-(2,4-dichlorophenyl)-2-(2-propenyloxy)ethyl]-1H-imidazole sulfate], the zone of inhibition at 500 ppm in series [1] (BAL, read-out: Zone of Inhibition, mm K. pneumoniae) came to 5 mm; in series [2] (BAL, read-out: Zone of Inhibition, mm S. aureus), 5 mm. Besides, the zone of inhibition at 1000 ppm was 5 mm in series [1] (setting [6]) and 6 mm in series [2] (setting [6]). The zone of inhibition at 2000 ppm in series [1] (setting [7]) was 5 mm; in series [2] (setting [7]) it was 6 mm. Further, the “Growth A. niger” value in series [3] (1000 ppm imazalil sulfate in grout disc) and in series [3] (2000 ppm imazalil sulfate in grout disc) was “no growth” throughout.

For the compound `C=CCOC(Cn1ccnc1)c1ccc(Cl)cc1Cl` (racemic) [imazalil agent, (±)-1-[2-(2,4-dichlorophenyl)-2-(2-propenyloxy)ethyl]-1H-imidazole], the “Resistance of grout puck to fungal attack (FIG. 2)” value in series [3] (1000 ppm imazalil agent in BAL grout, Aspergillus niger) is reported as “strong resistance to fungal attack”. The “Disruption to fungal encroachment by grout sample (FIG. 3)” value in series [3] (2000 ppm imazalil agent in BAL grout, Aspergillus niger) is listed as “significant disruption to fungal encroachment”. Moreover, in series [4], the “Thermally stable up to” value is at least 160 °C. The “Discoloration after prolonged exposure to ultraviolet irradiation” value in series [5] is reported as “no discoloration”.
